From publication PMC6130518, “Investigation of the effective components of the flowers of Trollius chinensis from the perspectives of intestinal bacterial transformation and intestinal absorption” (Pharmaceutical Biology, 2017)
“Also recorded” adds a separate entry of the source. Like-named read-outs stand apart in the source and are kept apart here.

How the values were obtained:
[1] = previous study, cited from earlier work
[2] = Transport experiment with Caco-2 cell monolayers; settings: human, Caco-2, Papp, Caco-2 cell monolayers; for Papp at 180 min, 10 mg/mL: extract 10 mg/mL; for Papp at 180 min, 20 mg/mL: extract 20 mg/mL; for Papp at 180 min, 30 mg/mL: extract 30 mg/mL
Method: (§1) The Caco-2 cells were cultured in the culture medium consisting of Dulbecco’s Modified Eagle Medium (DMEM, Gibco Inc., Grand Island, CA)-fetal bovine serum (FBS, Gibco Inc., Grand Island, CA)-nonessential amino acids (NEAA, Corning Costar, Cambridge, MA)-‘penicillin-streptomycin’ (Corning Costar, Cambridge, MA) (100:10:1:1, v/v/v/v) in 25 cm^2 flasks, which were incubated in 5% CO2 and constant temperature (37 °C) and humidity in the incubator. The culture medium was replaced every 2 or 3 days, and the cells were split 1:2 or 1:3 to conduct passage when they reached 80% confluence.
(§2) About 1.5 mL of the culture medium was added into the basal (BL) side of each well of the 12-well Transwell plates (insert diameter 12 mm, pore size 3.0 μm, membrane growth area 1.12 cm^2, Corning Costar, Cambridge, MA), and 0.5 mL of the Caco-2 cell suspension at the density of 2.0 × 10^5 cells/mL was seeded into the apical (AP) side of each insert. The cells were incubated in 5% CO2 and constant temperature (37 °C) and humidity in the incubator. The culture medium in both AP and BL sides was replaced every other day in the first week, then that in AP side was replaced every day and that in BL side was replaced every other day. The cells would differentiate and form a confluent monolayer. The integrity and viability of the cell monolayers were evaluated by measuring transepithelial electrical resistance (TEER) values in the culture medium at 37 °C using a Millicell®-ERS system (Millipore Corp., Bedford, MA), and only the inserts with the TEER above 600 Ω/cm^2 on day 21 were selected to perform the transport experiment.
(§3) About 200 μL of the solution in the receiving chambers was collected at 30, 60, 90, 120, 150, and 180 min, respectively, and then the same volume of HBSS was added. All samples were stored at −20 °C and filtered through a 0.45 μm membrane filter for HPLC analysis.
(§4) The HPLC conditions used for the analysis of the intestinal bacterial transformed AEOF before and after transport experiment was the same as above.
(§5) The transport percentage (%) was calculated using the formula transport percentage (%) = dQ/(C0 × V) × 100, wherein, V (mL) represented the volume of the donor compartment.

Caco-2 cell monolayers = assay: Transport experiment with Caco-2 cell monolayers; settings: for transport percentage: Caco-2 cell monolayers; for After transported with Caco-2 cell monolayers: intestinal bacterial transformed AEOF
Method: as §1, §2, §3, §4, §5

[3] = system: activated intestinal bacteria; assay: Intestinal bacterial transformation of AEOF; type: in vitro ADME, human; settings: for After transformed by intestinal bacteria / Before transformed by intestinal bacteria: content in the extract; for transformation by intestinal bacteria (in words): in AEOF 15.0, 30.0, 60.0 mg/mL, up to 72 h, single person derived- or multiple people-derived intestinal bacteria
Method: Each 3 g of fresh feces from 3 healthy men and 3 healthy women of 23–25 years old was suspended in 200 mL of general anaerobic medium (GAM, including L-cystine hydrochloride, soluble starch, pepsin, tryptone, peptone, soy peptone, serum powder, yeast extract, beef extract, and beef liver extract powder purchased from Beijing Aoboxing Biotechnology Co., Ltd, Beijing, China) broth prepared as per a literature (Yang & Xu [2011]), respectively, and cultured in an anaerobic incubator (Shanghai Cimomedical Appliance Co., Ltd., Shanghai, China) at 37 °C for 24 h (Tsuchihashi et al. [2009]). […] Each 100 μL of the activated intestinal bacteria from the 6 volunteers were added into 11.4 mL of GAM, mixed adequately, and incubated in the same conditions as previously to obtain the mixture of activated intestinal bacteria. About 0.4513, 0.9026, and 1.8052 g of AEOF were dissolved in 30 mL of GAM on a super clean bench (Beijing Great Wall Air Purification Co. Ltd., Beijing, China), respectively, to generate the experimental groups. Then, the triplicate GAM containing AEOF was divided into 24 screw-cap test tubes, and each screw-cap test tube had 3 mL of the GAM and 100 μL of the activated intestinal bacteria and the mixture of activated intestinal bacteria, respectively. They were incubated under the same condition, and the test tubes of each concentration in triplicate were removed from the anaerobic incubator at 0, 2, 4, 6, 12, 24, 48, and 72 h. About 100 μL of the bacterial suspension was replaced with GAM to obtain the control group. The GAM absent of the AEOF was used as the blank group. […] About 300 μL of the supernatant was collected, filtered through a 0.45 μm membrane filter, and stored at −20 °C before HPLC analysis.
The HPLC analysis was performed using a Waters 1500 series (Waters Business Operations, Milford, MA) equipped with a 1525 binary HPLC pump, an on-line degasser, a manual injector and a 2489 UV/Visible detector. […] The temperature was set at 35 °C and the UV detecting wavelengths were 254 and 365 nm. The mobile phase consisted of acetonitrile (HPLC grade, Fisher Co., Pittsburgh, PA) (A) and 1.0% acetic acid (Beijing Chemical Works, Beijing, China) in purified water (v/v) (B), and the gradient elution program was as follows: 5–10% A (0–5 min), 10–20% A (5–10 min), 20–25% A (10–22 min), 25–40% A (22–35 min), 40–50% A (35–40 min), and 50–5% A (40–42 min) at a flow rate of 1.0 mL/min. The volume injected was 5 μL.

[4] = Absorption experiment with everted gut sacs; settings: Sprague-Dawley, rat
[5] = system: everted gut sacs (jejunum); assay: Absorption experiment with everted gut sacs; settings: for transport percentage: Everted gut sacs, AP→BL; for After transported with everted gut sacs: intestinal bacterial transformed AEOF
[6] = ref Liu et al. [2014], Wu et al. [2014]
[7] = first of three lines per compound (lowest concentration; 10, 20, 30 mg/mL)
[8] = second of three lines per compound (middle concentration, not given)
[9] = third of three lines per compound (highest concentration, not given)
[10] = first of three lines per compound (lowest extract concentration)
[11] = first of three lines per compound (lowest extract concentration; AEOF 15, 30, 60 mg/mL)
[12] = second of three lines per compound (middle extract concentration, not given)
[13] = third of three lines per compound (highest extract concentration, not given)

Row | SMILES | Papp at 180 min, 10 mg/mL ([2]; AP→BL) [×10⁻⁶ cm/s] | Papp at 180 min, 10 mg/mL ([2]; BL→AP) [×10⁻⁶ cm/s] | Papp at 180 min, 20 mg/mL ([2]; AP→BL) [×10⁻⁶ cm/s] | Papp at 180 min, 20 mg/mL ([2]; BL→AP) [×10⁻⁶ cm/s] | Papp at 180 min, 30 mg/mL ([2]; AP→BL) [×10⁻⁶ cm/s] | Papp at 180 min, 30 mg/mL ([2]; BL→AP) [×10⁻⁶ cm/s] | transport percentage (Caco-2 cell monolayers; extract 10 mg/mL, AP→BL) [%] | transport percentage (Caco-2 cell monolayers; extract 10 mg/mL, BL→AP) [%] | transport percentage (Caco-2 cell monolayers; extract 20 mg/mL, AP→BL) [%] | transport percentage (Caco-2 cell monolayers; extract 20 mg/mL, BL→AP) [%] | transport percentage (Caco-2 cell monolayers; extract 30 mg/mL, AP→BL) [%] | transport percentage (Caco-2 cell monolayers; extract 30 mg/mL, BL→AP) [%] | After transported with Caco-2 cell monolayers (Caco-2 cell monolayers; [7]) [µg/mL] | After transported with Caco-2 cell monolayers (Caco-2 cell monolayers; [8]) [µg/mL] | After transported with Caco-2 cell monolayers (Caco-2 cell monolayers; [9]) [µg/mL] | After transformed by intestinal bacteria [3, 10] [µg/mL] | Before transformed by intestinal bacteria [3, 11] [µg/mL] | After transformed by intestinal bacteria [3, 12] [µg/mL] | Before transformed by intestinal bacteria [3, 12] [µg/mL] | After transformed by intestinal bacteria [3, 13] [µg/mL] | also measured
1 | COc1cc(C(=O)O)cc(CC=C(C)C)c1O [proglobeflowery acid] | 105 ± 4 | 223 ± 16 | 123 ± 26 | 142 ± 5 | 181 ± 22 | 105 ± 4 | 127.39 | 89.93 | 148.57 | 57.32 | 219.09 | 42.47 | 11.11 | 17.18 | 23.46 | 32.40 | 2.55 | 67.09 | 4.78 | 134.85 | absorption mechanism [1, 6]: mainly through passive diffusion; Before transformed by intestinal bacteria [3, 13]: 6.67 µg/mL; transformation by intestinal bacteria (in words) [3]: not transformed; also recorded: not changed; Papp at 180 min, 10 mg/mL [4]: 450 ± 11 ×10⁻⁶ cm/s; Papp at 180 min, 20 mg/mL [4]: 534 ± 14 ×10⁻⁶ cm/s; Papp at 180 min, 30 mg/mL [4]: 586 ± 8 ×10⁻⁶ cm/s; transport percentage ([5]; extract 10 mg/mL): 9.60%; transport percentage ([5]; extract 20 mg/mL): 10.58%; transport percentage ([5]; extract 30 mg/mL): 11.61%; After transported with everted gut sacs [5, 7]: 1.95 µg/mL; After transported with everted gut sacs [5, 8]: 4.95 µg/mL; After transported with everted gut sacs [5, 9]: 7.74 µg/mL
2 | O=C1CC[C@H]2c3cc(O)c(O)cc3CCN12 [trolline] | 112 ± 7 | 231 ± 7 | 127 ± 12 | 194 ± 2 | 107 ± 6 | 184 ± 11 | 135.43 | 93.13 | 153.03 | 78.21 | 130.00 | 74.30 | 8.10 | 13.59 | 19.15 | 22.37 | 22.80 | 36.28 | 35.96 | 71.00 | absorption mechanism [1, 6]: an associative mechanism including both active and passive transports; Before transformed by intestinal bacteria [3, 13]: 73.23 µg/mL; transformation by intestinal bacteria (in words) [3]: not transformed; also recorded: not changed; Papp at 180 min, 10 mg/mL [4]: 138 ± 1 ×10⁻⁶ cm/s; Papp at 180 min, 20 mg/mL [4]: 107 ± 5 ×10⁻⁶ cm/s; Papp at 180 min, 30 mg/mL [4]: 151 ± 4 ×10⁻⁶ cm/s; transport percentage ([5]; extract 10 mg/mL): 29.42%; transport percentage ([5]; extract 20 mg/mL): 20.32%; transport percentage ([5]; extract 30 mg/mL): 30.00%; After transported with everted gut sacs [5, 7]: 4.33 µg/mL; After transported with everted gut sacs [5, 8]: 6.97 µg/mL; After transported with everted gut sacs [5, 9]: 14.76 µg/mL
3 | COc1ccc(C(=O)O)cc1OC [veratric acid] | 104 ± 5 | 236 ± 5 | 105 ± 15 | 210 ± 4 | 109 ± 4 | 199 ± 4 | 109.67 | 95.04 | 127.58 | 84.75 | 131.58 | 80.33 | 0.92 | 1.62 | 2.79 | 3.22 | 2.81 | 7.44 | 6.10 | 12.78 | absorption mechanism [1, 6]: mainly through passive diffusion; Before transformed by intestinal bacteria [3, 13]: 13.39 µg/mL; transformation by intestinal bacteria (in words) [3]: not transformed; also recorded: not changed; Papp at 180 min, 10 mg/mL [4]: 127 ± 4 ×10⁻⁶ cm/s; Papp at 180 min, 20 mg/mL [4]: 111 ± 7 ×10⁻⁶ cm/s; Papp at 180 min, 30 mg/mL [4]: 142 ± 3 ×10⁻⁶ cm/s; transport percentage ([5]; extract 10 mg/mL): 27.04%; transport percentage ([5]; extract 20 mg/mL): 21.02%; transport percentage ([5]; extract 30 mg/mL): 28.12%; After transported with everted gut sacs [5, 7]: 0.59 µg/mL; After transported with everted gut sacs [5, 8]: 1.64 µg/mL; After transported with everted gut sacs [5, 9]: 2.02 µg/mL
4 | O=c1cc(-c2ccc(O)cc2)oc2c([C@@H]3O[C@H](CO)[C@@H](O)[C@H](O)[C@H]3O)c(O)cc(O)c12 [vitexin] | 39.6 ± 0.5 | 28.3 ± 2.7 | 13.6 ± 1.5 | 16.4 ± 0.5 | 33.8 ± 2.8 | 21.6 ± 0.5 | 47.97 | 11.43 | 16.41 | 6.61 | 40.90 | 8.74 | 0.19 | 0.23 | 0.39 | 3.10 | 2.98 | 5.70 | 5.11 | 11.19 | absorption mechanism ([1]; ref Liu et al. [2015]): transporter mediated efflux in addition to passive diffusion; Before transformed by intestinal bacteria [3, 13]: 11.04 µg/mL; transformation by intestinal bacteria (in words) [3]: not transformed; also recorded: not changed; Papp at 180 min, 10 mg/mL [4]: 26 ± 2.8 ×10⁻⁶ cm/s; Papp at 180 min, 20 mg/mL [4]: 15.5 ± 1.1 ×10⁻⁶ cm/s; Papp at 180 min, 30 mg/mL [4]: 38.1 ± 5 ×10⁻⁶ cm/s; transport percentage ([5]; extract 10 mg/mL): 5.55%; transport percentage ([5]; extract 20 mg/mL): 2.94%; transport percentage ([5]; extract 30 mg/mL): 7.55%; After transported with everted gut sacs [5, 7]: 0.11 µg/mL; After transported with everted gut sacs [5, 8]: 0.14 µg/mL; After transported with everted gut sacs [5, 9]: 0.50 µg/mL
